In patent US20100178326A1, “AMINOPHOSPHONATE CARRIERS FOR LIPOSOME-BASED DRUG RELEASE SYSTEMS” (priority 2008, published 2010):

Test: Liposome alanine efflux coupled with enzymatic assays
Conditions: alanine efflux after one hour of exposure; alanine-loaded DPPC/cholesterol (3:1) liposomes; carrier added in DMSO; control with no carrier 0.7
Description: Two sets of tests were undertaken to determine the viability of such aminophosphonate compounds as drug carriers in liposome-based delivery systems. The first evaluated liposome efflux coupled with enzymatic assays. In such an experiment, unilamellar liposomes loaded with 300 mM of alanine (an amino acid) were prepared from dipalmitoyl phosphatidyl choline (DPPC) and cholesterol (3:1 molar ratio) (in accordance with Torchilin, V. et al., Liposomes 2003, Second Edition, Oxford Press). Several samples of alanine-loaded liposomes were then loaded further with identical amounts of the different aminophosphonate carriers from above (with DMSO as a solvent) thereby producing different samples with different carriers but with same concentrations. The liposomes were then measured for alanine efflux after one hour of exposure as the conversion of alanine to pyruvate, catalyzed by Glutamic-Pyruvic Transmaminase enzyme, and further to lactate, catalyzed by the enzyme Lactate Dehydrogenase, accompanied by the oxidation of nicotinamide cofactor NADH to NAD^+ (as monitored by UV spectroscopy). The results are tabulated below (with a control of no carrier): […]

SMILES	Alanine Flux
COP(=O)(OC)C(C)(C)NCc1ccccc1 [Example 1]	4.4 nmol/h × m^2
CCCCC(CC)COP(=O)(OCC(CC)CCCC)C(C)(C)NCc1ccccc1 (stereo not shown) [Example 3]	4.3 nmol/h × m^2
CCCCOP(=O)(OCCCC)C1(NCc2ccccc2)CCCCC1 [Example 5]	4.4 nmol/h × m^2
CCCCOP(=O)(OCCCC)C(C)(C)NCc1ccccc1 [Example 2]	3.1 nmol/h × m^2
COP(=O)(OC)C1(NCc2ccccc2)CCCCC1 [Example 4]	7.2 nmol/h × m^2
CCCCOP(=O)(OCCCC)C1(Nc2ccccc2)CCCCC1 [Example 7]	4.4 nmol/h × m^2
COP(=O)(OC)C(C)(C)Nc1ccccc1 [Example 6]	7.8 nmol/h × m^2
